US20070072874A1, “Aminoheteroaryl compounds as protein kinase inhibitors” (Sugen, Inc., priority 2003, published 2007)

Each compound was assayed against T1, HGFR (c-MET) (Homo sapiens, UniProt P08581) (assay: HGFR continuous-coupled spectrophotometric assay (Ki and % inhibition)). Details: Table 3, column 'Ki(μM) or I(%)': values without % sign; read-out: Ki.
T1 construct: purchased Upstate 14-526
Assay type: biochemical

T1 sequence (P08581 25-1390): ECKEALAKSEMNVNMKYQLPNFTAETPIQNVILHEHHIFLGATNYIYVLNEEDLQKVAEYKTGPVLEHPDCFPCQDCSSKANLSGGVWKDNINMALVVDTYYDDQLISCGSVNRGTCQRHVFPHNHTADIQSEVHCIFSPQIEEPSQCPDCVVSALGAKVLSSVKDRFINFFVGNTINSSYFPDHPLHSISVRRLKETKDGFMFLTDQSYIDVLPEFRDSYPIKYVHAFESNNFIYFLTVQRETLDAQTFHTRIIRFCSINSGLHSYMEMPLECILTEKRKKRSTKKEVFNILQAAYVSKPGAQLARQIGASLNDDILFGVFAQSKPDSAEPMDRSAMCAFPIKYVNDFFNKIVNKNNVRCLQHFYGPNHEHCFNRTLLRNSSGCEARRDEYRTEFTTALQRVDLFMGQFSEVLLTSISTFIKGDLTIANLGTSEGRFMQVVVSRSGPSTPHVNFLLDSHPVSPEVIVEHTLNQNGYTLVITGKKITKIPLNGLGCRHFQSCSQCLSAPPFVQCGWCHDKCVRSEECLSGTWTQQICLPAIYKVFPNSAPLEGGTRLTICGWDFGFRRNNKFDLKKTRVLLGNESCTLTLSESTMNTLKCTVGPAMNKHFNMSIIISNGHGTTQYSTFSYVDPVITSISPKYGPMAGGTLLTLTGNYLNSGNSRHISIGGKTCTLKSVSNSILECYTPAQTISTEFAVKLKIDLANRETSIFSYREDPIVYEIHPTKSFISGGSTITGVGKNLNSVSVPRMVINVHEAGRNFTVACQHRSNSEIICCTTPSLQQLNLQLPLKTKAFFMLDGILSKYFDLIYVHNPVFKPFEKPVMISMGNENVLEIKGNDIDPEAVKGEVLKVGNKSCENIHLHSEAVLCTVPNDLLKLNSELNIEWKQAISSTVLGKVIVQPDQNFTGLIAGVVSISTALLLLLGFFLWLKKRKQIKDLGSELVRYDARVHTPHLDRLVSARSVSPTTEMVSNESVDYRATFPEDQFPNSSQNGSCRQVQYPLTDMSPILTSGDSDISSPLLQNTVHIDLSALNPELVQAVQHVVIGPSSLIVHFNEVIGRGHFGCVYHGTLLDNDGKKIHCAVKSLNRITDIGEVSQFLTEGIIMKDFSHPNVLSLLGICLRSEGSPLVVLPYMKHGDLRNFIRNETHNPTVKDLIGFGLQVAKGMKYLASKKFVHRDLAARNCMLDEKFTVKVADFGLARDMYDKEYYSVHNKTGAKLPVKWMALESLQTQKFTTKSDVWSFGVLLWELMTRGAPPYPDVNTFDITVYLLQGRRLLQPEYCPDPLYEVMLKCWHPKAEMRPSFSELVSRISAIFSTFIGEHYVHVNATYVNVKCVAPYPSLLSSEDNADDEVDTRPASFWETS

Row | SMILES | Ki
1 | CC(Oc1cc(-c2ccc(CN3C[C@@H](C)O[C@@H](C)C3)cc2)cnc1N)c1c(Cl)ccc(F)c1Cl (stereo partly drawn) [Example I-571, 3-[1-(2,6-Dichloro-3-fluoro-phenyl)-ethoxy]-5-(4-((2R,6S)-2,6-dimethyl-morpholin-4-ylmethyl)-phenyl]-pyridin-2-ylamine] | 0.27 µM
2 | Nc1ncc(-c2ccc(C(=O)N3CCC(N4CCCC4)CC3)cc2)cc1OCc1ccc(-c2ccccc2)cc1 [Example I-651] | 1.53 µM
3 | CC(Oc1cc(-c2ccc(CN3CCOCC3)cc2)cnc1N)c1c(Cl)ccc(F)c1Cl (stereo not drawn) [Example I-572, 3-[1-(2,6-Dichloro-3-fluoro-phenyl)-ethoxy]-(4-morpholin-4-ylmethyl-phenyl)-pyridin-2-ylamine] | 0.554 µM
4 | CCN1CCN(C(=O)c2ccc(-c3cnc(N)c(OC(C)c4c(Cl)ccc(F)c4Cl)c3)cc2)CC1 (stereo not drawn) [Example I-633, (4-{6-Amino-5-[1-(2,6-dichloro-3-fluoro-phenyl)-ethoxy]-pyridin-3-yl}-phenyl)-(4-ethyl-piperazin-1-yl)-methanone] | 0.0472 µM

Same assay, conditions: at 50 nM; Table 5, library products of procedure 40, crude reaction stock; read-out: % inhibition (percent c-MET inhibition)

Row | SMILES | inhibition at 0.05 µM
5 | CC(Oc1cc(-c2ccc(C(=O)N(C)CCO)cc2)cnc1N)c1c(Cl)ccc(F)c1Cl [Example L-104] | 69%
6 | CC(C)OCCNC(=O)c1ccc(-c2cnc(N)c(OC(C)c3c(Cl)ccc(F)c3Cl)c2)cc1 [Example L-140] | 64%
7 | CC(Oc1cc(-c2ccc(C(=O)N3CCCCC3CCO)cc2)cnc1N)c1c(Cl)ccc(F)c1Cl [Example L-47] | 63%

Same assay, conditions: at 1 μM; Table 8, library products of procedure 43, crude reaction stock; read-out: % inhibition (percent c-MET inhibition)

Row | SMILES | inhibition at 1 µM
8 | CC1CN(C(=O)c2ccc(-c3cnc(N)c(COc4cc(F)ccc4C(F)(F)F)c3)cc2)CC(C)N1 (stereo not drawn) | 17%
9 | CC1CN(C(=O)c2ccc(-c3cnc(N)c(OCc4nc5cc(C(F)(F)F)ccc5s4)c3)cc2)CC(C)N1 (stereo not drawn) | 27%

Same assay, conditions: cells marked "Ki"; read-out: Ki (printed in the Met IC50 column)

Row | SMILES | Ki
10 | CC(Oc1cc(-c2ccc(OCC(=O)N3CCN(C(=O)OC(C)(C)C)CC3)cc2)cnc1N)c1c(Cl)ccc(F)c1Cl (stereo not drawn) [Example I-479, 4-[2-(4-{8-Amino-5-[1-(2,6-dichloro-3-fluoro-phenyl)-ethoxy]-pyridin-3-yl}-phenoxy)-acetyl]-piperazine-1-carboxylic acid tert-butyl ester] | 0.016 µM

Same assay, conditions: read-out: % (inhibition) at 1 μM (printed in the Met IC50 column), at 1 μM

Row | SMILES | inhibition at 1 µM
11 | CC(Oc1cc(-c2ccc(C(=O)N3CCN(C)CC3)cc2)cnc1N)c1cccc(F)c1C(F)(F)F (stereo not drawn) [Example I-442, (4-{6-Amino-5-[1-(3-fluoro-2-trifluoromethyl-phenyl)-ethoxy]-pyridin-3-yl}-phenyl)-(4-methyl-piperazin-1-yl)-methanone] | 16%
12 | CC(Oc1cc(CNC(=O)N2CCC[C@@H]2CN2CCCC2)cnc1N)c1c(Cl)ccc(F)c1Cl (stereo partly drawn) [Example I-457, (R)-2-Pyrrolidin-1-ylmethyl-pyrrolidine-1-carboxylic acid {6-amino-5-[1-(2,6-dichloro-3-fluoro-phenyl)-ethoxy]-pyridin-3-ylmethyl}-amide] | 1%
13 | COc1c(F)cccc1C(C)Oc1cc(Br)cnc1N (stereo not drawn) [Example I-469, 5-Bromo-3-[1-(3-fluoro-2-methoxy-phenyl)-ethoxy]-pyridin-2-ylamine] | 7%
14 | CC(Oc1cc(CN)cnc1N)c1c(Cl)ccc(F)c1Cl (stereo not drawn) [Example I-456, 5-Aminomethyl-3-[1-(2,6-dichloro-3-fluoro-phenyl)-ethoxy]-pyridin-2-ylamine] | 0%
15 | CC(Oc1cc(-c2ccc(C(=O)N3CCC[C@@H]3CN3CCCC3)cc2)cnc1N)c1cccc(F)c1C(F)(F)F (stereo partly drawn) [Example I-446, (4-{6 Amino-5-[1-(3-fluoro-2-trifluoromethyl-phenyl)-ethoxy]pyridin-3-yl}-phenyl)-((R) 2 pyrrolidin-1-ylmethyl-pyrrolidin-1-yl)-methanone] | 12%
16 | CC(=O)NCc1cnc(N)c(OC(C)c2c(Cl)ccc(F)c2Cl)c1 (stereo not drawn) [Example I-459, N-{6-Amino-5-[1-(2,6-dichloro-3-fluoro-phenyl)-ethoxy]-pyridin-3-ylmethyl}-acetamide] | 2%
17 | CC(Oc1cc(CNS(C)(=O)=O)cnc1N)c1c(Cl)ccc(F)c1Cl (stereo not drawn) [Example I-458, N-{6-Amino-5-[1-(2,6-dichloro-3-fluorophenyl)-ethoxy]-pyridin-3-ylmethyl}-methanesulfonamide] | 0%
18 | COc1c(F)cccc1COc1cc(-c2ccc(C(=O)N3C[C@@H](C)N[C@@H](C)C3)cc2)cnc1N [Example I-470, (4-{6-Amino-5-(3-fluoro-2-methoxy-benzyloxy)-pyridin-3-yl]-phenyl}-((3R,5S)-3,5-dimethyl-piperazin-1-yl)-methanone] | 3%
19 | CC(Oc1cc(C#N)cnc1N)c1c(Cl)ccc(C#N)c1Cl (stereo not drawn) [Example I-455, 6-Amino-5-[1-(2,6-dichloro-3-cyano-phenyl)-ethoxy]-nicotinonitrile] | 8%
20 | CC(Oc1cc(-c2ccc(C(=O)N3CCC[C@H]3CN3CCCC3)cc2)cnc1N)c1cccc(F)c1C(F)(F)F (stereo partly drawn) [Example I-445, (4-{6-Amino-5-[1-(3-fluoro-2-trifluoromethyl-phenyl)-ethoxy]-pyuidin-3-yl}-phenyl)-((S)-2-pyrrolidin-1-ylmethyl-pyrrolidin-1-yl)-methanone] | 15%
21 | CC(Oc1cc(-c2ccc(C(=O)N3CCC(N4CCCC4)CC3)cc2)cnc1N)c1cccc(F)c1C(F)(F)F (stereo not drawn) [Example I-443, (4-{6-Amino-5-[1-(3-fluoro-2-trifluoromethyl-phenyl)-ethoxy]-pyridin-3-yl}-phenyl)-(4-pyrrolidin-1-yl-piperidin-1yl)-methanone] | 13%
22 | CC(Oc1cc([C@H](O)CO)cnc1N)c1c(Cl)ccc(F)c1Cl (stereo partly drawn) [Example I-462, (S)-1-{6 Amino-5-[1-(2,6-dichloro-3-fluoro-phenyl)-ethoxy]-pyridin-3-yl}-ethane-1,2-diol] | 2%
23 | Cc1ccc(S(=O)(=O)NCc2cnc(N)c(OC(C)c3c(Cl)ccc(F)c3Cl)c2)cc1 (stereo not drawn) [Example I-460, N-{6-Amino-5-[1-(2,6-dichloro-3-fluoro-phenyl)-ethoxy]-pyridin-3-ylmethyl}-4-methyl-benzenesulfonamide] | 9%
24 | CC(Oc1cc(Br)cnc1N)c1cccc(F)c1Cl (stereo not drawn) [Example I-486, Bromo-3-[1-(2-chloro-3-fluoro-phenyl)-ethoxy]-pyridin-2-ylamine] | 0%
25 | CC(Oc1cc(-c2ccc(C(=O)N3C[C@@H](C)N[C@@H](C)C3)cc2)cnc1N)c1cccc(F)c1C(F)(F)F (stereo partly drawn) [Example I-444, (4-{6-Amino-5-[1-(3-fluoro-2-trinuommethyl-phenyl)-ethoxy]-pyridin-3-yl}-phenyl)-((3R,5S)-3,5-dimethyl-piperazin-1-yl)-methanone] | 10%
26 | CC(Oc1cc(-c2ccc(C(=O)NCCN3CCOCC3)cc2)cnc1N)c1cccc(F)c1C(F)(F)F (stereo not drawn) [Example I-451, 4-{6-Amino-5-[1-(3-fluoro-2-trifluoromethyl-phenyl)-ethoxy]-pyridin-3-yl}-N-(2-morpholin-4-yl-ethyl)-benzamide] | 12%
27 | CC(Oc1cc(-c2ccc(C(=O)NCCN3CCCC3)cc2)cnc1N)c1cccc(F)c1C(F)(F)F (stereo not drawn) [Example I-450, 4-{6-Amino-5-[1-(3-fluoro-2-trifluoromethyl-phenyl)-ethoxy]-pyridin-3-yl}-N-(2-pyrrolidin-1-yl-ethyl)-benzamide] | 7%
28 | COc1c(F)cccc1C(C)Oc1cc(-c2ccc(C(=O)N3C[C@@H](C)N[C@@H](C)C3)cc2)cnc1N (stereo partly drawn) [Example I-471] | 1%
29 | CC(Oc1cc(-c2ccc(C(=O)NCCCN3CCCC3)cc2)cnc1N)c1cccc(F)c1C(F)(F)F (stereo not drawn) [Example I-452, 4-{6-Amino-5-[1-(3-fluoro-2-trifluoromethyl-phenyl)-ethoxy]-pyridin-3-yl}-N-(3-pyrrolidin-1-yl-propyl)-benzamide] | 3%
30 | COc1c(F)cccc1COc1cc(Br)cnc1N [Example I-468, 5-Bromo-3-(3-fluoro-2-methoxy-benzyloxy)-pyridin-2-ylamine] | 8%
31 | CC(Oc1cc([C@@H](O)CO)cnc1N)c1c(Cl)ccc(F)c1Cl (stereo partly drawn) [Example I-463, (R)-1-{6-Amino-5-[1-(2,6-dichloro-3-fluoro-phenyl)-ethoxy]-pyridin-3-yl}-ethane-1,2-diol] | 2%
32 | CC(Oc1cc(-c2ccc(C(=O)NC3CCN(C)CC3)cc2)cnc1N)c1cccc(F)c1C(F)(F)F (stereo not drawn) [Example I-449, 4-{6-Amino-5-[1-(3-fluoro-2-trifluoromethyl-phenyl)-ethoxy]pyridin-3-yl}-N-[1-methylpiperidin-4-yl)-benzamide] | 12%
33 | CC(Oc1cc(-c2ccc(C(=O)NCCCN3CCOCC3)cc2)cnc1N)c1cccc(F)c1C(F)(F)F (stereo not drawn) [Example I-453, 4-{6-Amino-5-[1-(3-fluoro-2-trifluoromethyl-phenyl)-ethoxy]-pyridin-3-yl}-N-(3-morpholin-4-yl-propyl)-benzamide] | 10%

The compounds below were run against T2, GST fusion protein containing the Met kinase domain (Homo sapiens, UniProt P08581) (assay: MET transphosphorylation assay (ELISA, poly(glu-tyr) substrate)). Details: not given.
T2 construct: Purified GST fusion protein containing the Met kinase domain, SUGEN, Inc
Assay type: biochemical

T2 sequence (P08581 1078-1345 limits assumed): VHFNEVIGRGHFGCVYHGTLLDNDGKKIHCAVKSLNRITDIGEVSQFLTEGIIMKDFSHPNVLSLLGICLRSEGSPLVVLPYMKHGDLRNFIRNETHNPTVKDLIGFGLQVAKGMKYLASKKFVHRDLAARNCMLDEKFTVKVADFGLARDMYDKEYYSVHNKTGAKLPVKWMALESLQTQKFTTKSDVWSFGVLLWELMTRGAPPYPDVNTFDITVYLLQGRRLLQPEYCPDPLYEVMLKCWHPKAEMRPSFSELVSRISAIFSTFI

Row | SMILES | IC50
34 | CC(Oc1cc(-c2ccc(C(=O)N3CCN(C)CC3)cn2)cnc1N)c1c(F)ccc(F)c1Cl (stereo not drawn) [Example I-517, {6′-Amino-5′-[1-(2-chloro-3,6-difluoro-phenyl)-ethoxy]-[2,3′]bipyridinyl-5-yl)-(4-methyl-piperazin-1-yl)-methanone] | 131 nM
35 | CN(C)CCS(=O)(=O)Nc1cccc(-c2cnc(N)c(OCc3c(F)ccc(F)c3Cl)c2)c1 [Example I-259, 2-Dimethylamino-ethanesulfonic acid {3-[6-amino-5-(2-chloro-3,6-difluoro-benzyloxy)-pyridin-3-yl]-phenyl}-amide] | 1500 nM

Same assay, conditions: Table 1; several values in one cell are separated by /

Row | SMILES | IC50
36 | Nc1ncc(Br)cc1OCc1c(F)cccc1Cl [I(e), 5-Bromo-3-(2-chloro-6-fluoro-benzyloxy)-pyridin-2-ylamine] | > 20000 nM
